According to publication PMC10415282, “High resolution cryo-EM and crystallographic snapshots of the actinobacterial two-in-one 2-oxoglutarate dehydrogenase” (Nature Communications, 2023):

Experiments:
MsKGD-GarA complex = target: T1, MsKGD-GarA complex (Mycolicibacterium smegmatis, UniProt A0R2B1); experiment: crystal structure, […] Å; assay type: binding; conditions: Mg2+; 2 mM ThDP, 5 mM MgCl2, pH 8.0; GarA bound, resting conformation
T1 construct: gene kgd; with Glycogen accumulation regulator GarA

OdhA = target: T2, OdhA (Corynebacterium glutamicum, UniProt Q8NRC3); experiment: cryo-EM structure, […] Å; assay type: binding; conditions: E2o active site; ThDP-Mg and acetyl-CoA also bound
T2 construct: full length residues 1-1221, E. coli BL21(DE3), N-terminal His6-TEV tag cleaved for cryo-EM (OdhA-His6 kept for SPR); homohexamer, ~800 kDa

Compound	crystal structure, 4.6 Å (MsKGD-GarA complex)	cryo-EM structure, 2.1 Å (OdhA)
Cc1ncc(C[n+]2csc(CCOP(=O)(O)OP(=O)(O)O)c2C)c(N)n1 [ThDP]	The E1o dimers containing the Mg-ThDP compose the blades	–
CC(C)(COP(=O)(O)OP(=O)(O)OC[C@H]1O[C@@H](n2cnc3c(N)ncnc32)[C@H](O)[C@@H]1OP(=O)(O)O)[C@@H](O)C(=O)NCCC(=O)NCCSC(=O)CCC(=O)O [succinyl-CoA]	–	succinyl-CoA binds to the same domain with its 2-phosphoadenosine moiety superimposable
